Several values for one entry are separate records, joined by “and”; a condition that tells them apart may be missing. Identical values can stand only once. Like-named read-outs stand apart in the source and are kept apart here.
Experiments:
[1] = Pharmacokinetics in ICR mice after intravenous and intragastric administration; format: in vivo; details: for MRT last: read-out: MRT(0-t); for MRT inf: read-out: MRT(0-∞); for Vd: read-out: Vz
Method in brief: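 Compounds were dissolved at 0.5 mg/ml in DMSO/PEG400/HP-β-CD saline vehicle and given to overnight-fasted male ICR mice, 2 mg/kg by vein or 5 mg/kg by gavage (n=3 each). Plasma was then protein-precipitated, assayed by LC-MS/MS, and PK parameters including oral bioavailability were derived.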

[2] = target: T1, MDM2 (Homo sapiens, UniProt Q00987); assay: Inhibition test of MDM2-P53 (GST-MDM2, Biotin-P53, Anti-GST-Tb, SA-XL665); format: binding
T1 construct: made in house
Method in brief: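 Compounds, serially diluted 5-fold (twelve concentrations), were shaken for 90 min at 25° C with a mix of GST-MDM2 (4 nM final), Biotin-P53, anti-GST-Tb and SA-XL665. Buffer: 1×PBS, 0.1% BSA, 5 mM DTT, 1 mM AEBSF; signal read on a microplate reader.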

[3] = system: human osteosarcoma cell line SJSA-1; assay: Inhibition of proliferation of human osteosarcoma cell line SJSA-1 (DAPI staining, In Cell Analyzer); details: Homo sapiens, SJSA-1, 72 h, read-out: IC50 (nM), inhibitory activity on proliferation of human osteosarcoma cell line SJSA-1, SJSA-1, incubated 72 h
[4] = ICR mice, IV 2 mg/kg, individual animal, 2 mg/kg
[5] = ICR mice, PO 5 mg/kg, individual animal, 5 mg/kg
[6] = male, ICR, mouse, plasma, iv, 2 mg/kg, ICR mice, IV 2 mg/kg, individual animal
[7] = male, ICR, mouse, plasma, iv, 2 mg/kg, ICR mice, IV 2 mg/kg, individual animal, read-out: AUC(0-t)
[8] = male, ICR, mouse, plasma, iv, 2 mg/kg, ICR mice, IV 2 mg/kg, individual animal, read-out: Cmax
[9] = male, ICR, mouse, plasma, iv, 2 mg/kg, ICR mice, IV 2 mg/kg, individual animal, read-out: t1/2 (converted)
[10] = male, ICR, mouse, plasma, iv, 2 mg/kg, ICR mice, IV 2 mg/kg, mean of 3 animals
[11] = male, ICR, mouse, plasma, iv, 2 mg/kg, ICR mice, IV 2 mg/kg, mean of 3 animals, read-out: AUC(0-t)
[12] = male, ICR, mouse, plasma, iv, 2 mg/kg, ICR mice, IV 2 mg/kg, mean of 3 animals, read-out: Cmax
[13] = male, ICR, mouse, plasma, iv, 2 mg/kg, ICR mice, IV 2 mg/kg, mean of 3 animals, read-out: Tmax
[14] = male, ICR, mouse, plasma, iv, 2 mg/kg, ICR mice, IV 2 mg/kg, mean of 3 animals, read-out: t1/2 (converted)
[15] = male, ICR, mouse, plasma, po, 5 mg/kg, ICR mice, PO 5 mg/kg, individual animal
[16] = male, ICR, mouse, plasma, po, 5 mg/kg, ICR mice, PO 5 mg/kg, individual animal, read-out: Cmax
[17] = male, ICR, mouse, plasma, po, 5 mg/kg, ICR mice, PO 5 mg/kg, individual animal, read-out: Tmax
[18] = male, ICR, mouse, plasma, po, 5 mg/kg, ICR mice, PO 5 mg/kg, individual animal, read-out: t1/2 (converted)
[19] = male, ICR, mouse, plasma, po, 5 mg/kg, ICR mice, PO 5 mg/kg, mean of 3 animals
[20] = male, ICR, mouse, plasma, po, 5 mg/kg, ICR mice, PO 5 mg/kg, mean of 3 animals, read-out: AUC(0-t)
[21] = male, ICR, mouse, plasma, po, 5 mg/kg, ICR mice, PO 5 mg/kg, mean of 3 animals, read-out: Cmax
[22] = male, ICR, mouse, plasma, po, 5 mg/kg, ICR mice, PO 5 mg/kg, mean of 3 animals, read-out: Tmax
[23] = male, ICR, mouse, plasma, po, 5 mg/kg, ICR mice, PO 5 mg/kg, mean of 3 animals, read-out: t1/2 (converted)
[24] = male, ICR, mouse, plasma, po, 5 mg/kg, oral intragastric administration 5 mg/kg, read-out: AUC0-t
[25] = male, ICR, mouse, plasma, po, 5 mg/kg, oral intragastric administration 5 mg/kg, read-out: half-life (converted)
[26] = male, mouse, plasma, ICR mice, PO 5 mg/kg vs IV 2 mg/kg, from mean values, read-out: F* (bioavailability)

T1 sequence (Q00987 whole entry): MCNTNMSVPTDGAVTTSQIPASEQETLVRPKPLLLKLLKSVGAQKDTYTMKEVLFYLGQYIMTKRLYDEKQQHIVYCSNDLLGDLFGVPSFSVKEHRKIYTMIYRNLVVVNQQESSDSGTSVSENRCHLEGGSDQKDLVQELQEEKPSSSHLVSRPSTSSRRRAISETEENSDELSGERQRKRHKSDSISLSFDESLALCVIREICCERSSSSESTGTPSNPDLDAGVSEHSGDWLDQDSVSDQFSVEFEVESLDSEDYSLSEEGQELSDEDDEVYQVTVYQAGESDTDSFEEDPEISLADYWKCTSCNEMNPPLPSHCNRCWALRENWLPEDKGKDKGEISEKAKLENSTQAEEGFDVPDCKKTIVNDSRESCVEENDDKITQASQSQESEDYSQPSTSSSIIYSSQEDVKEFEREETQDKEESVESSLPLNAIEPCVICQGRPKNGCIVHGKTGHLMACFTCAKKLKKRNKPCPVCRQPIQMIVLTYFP

SMILES: COc1ncc(-c2nc3c(n2C(C)C)[C@@]2(C(=O)Nc4cc(Cl)ccc42)N(c2cc(F)cc(Cl)c2)C3=O)c(OC)n1 [Example S-45, (S)-6-chloro-5′-(3-chloro-5-fluorophenyl)-2′-(2,4-dimethoxypyrimidin-5-yl)-3′-isopropyl-3′H-spiro[dihydroindole-3,4′-pyrrolo[3,4-d]imidazole]-2,6′(5′H)-dione]
- AUC(0-t) [1, 4]: 1865.23 ng·h/mL and 2072.07 ng·h/mL
- AUC(0-∞) [1, 4]: 1895.22 ng·h/mL and 2103.04 ng·h/mL
- CL [1, 4]: 17.59 mL/min/kg and 15.85 mL/min/kg
- Cmax [1, 4]: 779.74 ng/mL and 882.75 ng/mL
- MRT(0-t) [1, 4]: 1.36 h
- MRT(0-∞) [1, 4]: 1.44 h
- Tmax [1, 4]: 0.08 h and 0.25 h
- Vz [1, 4]: 1.54 L/kg and 1.37 L/kg
- t1/2 [1, 4]: 1.01 h and 1.00 h
- AUC(0-t) [1, 5]: 5315.63 ng·h/mL and 4196.04 ng·h/mL
- AUC(0-∞) [1, 5]: 5471.40 ng·h/mL and 4431.71 ng·h/mL
- Cmax [1, 5]: 1355.63 ng/mL and 1169.32 ng/mL
- MRT(0-t) [1, 5]: 2.53 h
- MRT(0-∞) [1, 5]: 2.75 h
- Tmax [1, 5]: 1.00 h
- t1/2 [1, 5]: 1.54 h and 1.87 h
- AUC(0-inf) [1, 6]: 1830 ng·h/mL
- clearance [1, 6]: 18.3 mL/min/kg
- AUC(0-t) [1, 7]: 1790 ng·h/mL
- Cmax [1, 8]: 766 ng/mL
- MRT last [1, 6]: 1.34 h
- MRT inf [1, 6]: 1.45 h
- Vd [1, 6]: 1.65 L/kg
- half-life [1, 9]: 1.05 h
- AUC(0-inf) [1, 10]: 1940 ng·h/mL
- clearance [1, 10]: 17.2 mL/min/kg
- AUC(0-t) [1, 11]: 19100 ng·h/mL
- Cmax [1, 12]: 809 ng/mL
- MRT last [1, 10]: 1.35 h
- MRT inf [1, 10]: 1.45 h
- Tmax [1, 13]: 0.139 h
- Vd [1, 10]: 1.52 L/kg
- half-life [1, 14]: 1.02 h
- AUC(0-inf) [1, 15]: 6350 ng·h/mL
- AUC(0-t) ([1]; male, ICR, mouse, plasma, po, 5 mg/kg, ICR mice, PO 5 mg/kg, individual animal, read-out: AUC(0-t)): 5860 ng·h/mL
- Cmax [1, 16]: 1590 ng/mL
- MRT last [1, 15]: 2.56 h
- MRT inf [1, 15]: 3.21 h
- Tmax [1, 17]: 0.5 h
- half-life [1, 18]: 2.17 h
- AUC(0-inf) [1, 19]: 5420 ng·h/mL
- AUC(0-t) [1, 20]: 5120 ng·h/mL
- Cmax [1, 21]: 1370 ng/mL
- MRT last [1, 19]: 2.55 h
- MRT inf [1, 19]: 2.99 h
- Tmax [1, 22]: 0.83 h
- half-life [1, 23]: 1.86 h
- AUC(0-t) [1, 24]: 5120 ng·h/mL
- half-life [1, 25]: 1.86 h
- bioavailability ([1]; male, ICR, mouse, plasma, oral intragastric administration 5 mg/kg, read-out: bioavailability): 107%
- bioavailability [1, 26]: 107%
- IC50 [2]: 1.72 nM
- IC50 [3]: 6.2 nM

SMILES: COc1ccc(-c2nc3c(n2C(C)C)[C@@]2(C(=O)Nc4cc(Cl)ccc42)N(c2cc(Cl)cnc2C)C3=O)c(OC)c1 [Example S-61, (S)-6-chloro-5′-(5-chloro-2-methylpyridin-3-yl)-2′-(2,4-dimethoxyphenyl)-3′-isopropyl-3′H-spiro[dihydroindole-3,4′-pyrrolo[3,4-d]imidazole]-2,6′(5′H)-dione]
- AUC(0-t) [1, 4]: 5346.76 ng·h/mL and 4640.74 ng·h/mL
- AUC(0-∞) [1, 4]: 5483.62 ng·h/mL and 4724.28 ng·h/mL
- CL [1, 4]: 6.08 mL/min/kg and 7.06 mL/min/kg
- Cmax [1, 4]: 3244.96 ng/mL and 2994.43 ng/mL
- MRT(0-t) [1, 4]: 1.26 h and 1.21 h
- MRT(0-∞) [1, 4]: 1.42 h and 1.32 h
- Vz [1, 4]: 0.60 L/kg and 0.67 L/kg
- t1/2 [1, 4]: 1.15 h and 1.09 h
- AUC(0-t) [1, 5]: 2462.65 ng·h/mL and 4960.30 ng·h/mL and 3162.34 ng·h/mL
- AUC(0-∞) [1, 5]: 5500.70 ng·h/mL and 3530.81 ng·h/mL
- Cmax [1, 5]: 2489.40 ng/mL and 1772.67 ng/mL
- MRT(0-t) [1, 5]: 2.03 h and 1.91 h
- MRT(0-∞) [1, 5]: 3.00 h
- Tmax [1, 5]: 0.50 h
- t1/2 [1, 5]: 2.71 h and 2.98 h
- AUC(0-inf) [1, 6]: 3630 ng·h/mL
- clearance [1, 6]: 9.19 mL/min/kg
- AUC(0-t) [1, 7]: 3580 ng·h/mL
- Cmax [1, 8]: 3250 ng/mL
- MRT last [1, 6]: 0.99 h
- MRT inf [1, 6]: 1.07 h
- Tmax ([1]; male, ICR, mouse, plasma, iv, 2 mg/kg, ICR mice, IV 2 mg/kg, individual animal, read-out: Tmax): 0.08 h
- Vd [1, 6]: 0.8 L/kg
- half-life [1, 9]: 1 h
- AUC(0-inf) [1, 10]: 4610 ng·h/mL
- clearance [1, 10]: 7.44 mL/min/kg
- AUC(0-t) [1, 11]: 4520 ng·h/mL
- Cmax [1, 12]: 3160 ng/mL
- MRT last [1, 10]: 1.15 h
- MRT inf [1, 10]: 1.27 h
- Tmax [1, 13]: 0.083 h
- Vd [1, 10]: 0.69 L/kg
- half-life [1, 14]: 1.08 h
- AUC(0-inf) [1, 15]: 2770 ng·h/mL
- Cmax [1, 16]: 2430 ng/mL
- MRT last [1, 15]: 1.57 h
- MRT inf [1, 15]: 2.85 h
- Tmax [1, 17]: 0.25 h
- half-life [1, 18]: 3.58 h
- AUC(0-inf) [1, 19]: 3930 ng·h/mL
- AUC(0-t) [1, 20]: 3530 ng·h/mL
- Cmax [1, 21]: 2230 ng/mL
- MRT last [1, 19]: 1.84 h
- MRT inf [1, 19]: 2.95 h
- Tmax [1, 22]: 0.33 h
- half-life [1, 23]: 3.09 h
- AUC(0-t) [1, 24]: 3530 ng·h/mL
- half-life [1, 25]: 3.09 h
- bioavailability [1, 26]: 31.2%
- IC50 [2]: 1.31 nM
- IC50 [3]: 5.5 nM
